Assays:
[1] = system: chemoresistant epithelial ovarian cancer (EOC) xenografts; assay: EOC xenograft in SCID mice, tumour growth; format: in vivo; conditions: increasing doses, intraperitoneal injection; data not shown
Procedure: (§1) In vivo studies using tumour-bearing mice were conducted to further confirm that Cpd 1 induces programmed cell death via an autophagic process. SCID mice bearing chemoresistant epithelial ovarian cancer (EOC) xenografts derived from a primary cell culture of a patient's ascites were administered with increasing doses of Cpd 1 by intraperotineal injection resulting in reductions in both tumor volume and tumor weight (data not shown). Representative tumours excised from these mice and tumour-bearing mice administered vehicle control were then fixed, sectioned and subjected to immunohistopathology analysis using an α-enodonuclease G directed monoclonal antibody. Tumor samples were blocked with either 10% horse or goat serum in PBS for 1 hour at room temperature. Following three washes with PBS, samples were incubated overnight at 4° C. with either the anti-EndoG (LifeSpan Bioscience) antibody or mouse IgG1 isotype as negative controls. After three washes with PBS, specific staining was detected by incubating with a peroxidase-conjugated horse anti-mouse antibody (1:1000 dilution) for 1 hour followed by a five-minute incubation with DAB substrate (Vector Laboratories). Tissue sections were then counterstained with haematoxylin (Sigma Chemical Co.) before dehydration with ethanol and Histosolve (Shandon Inc., Pittsburgh, Pa.). […]

Beclin 1 = assay: Western blot of R-182 mitochondrial extracts, Beclin 1; format: cell-based, Human; conditions: R-182 cells, 5 μg/ml over 24 hr
Source text: FIG. 8. Molecular evidence of autophagic cell death in R-182 ovarian cancer cells induced by Cpd 1. […] B, Beclin 1 binds to Bcl-2. Immunoprecipitation study using mitochondrial preparations of cells pre-treated with Cpd 1 as stated in A, and subjected to beclin 1 immunoprecitation. Immunoprecipitated fractions were washed in PBS, subjected to SDS-PAGE, blotted and then probed with a mouse anti-Bcl-2 antibody. Actin and Topo-1 were used as loading control. C, Depolarized cells resulting from over-expression of Bax and Beclin 1 following administration of Cpd 1. Cells were treated with Cpd 1 as described in A, pelleted and washed in HBSS and the cell pellet resuspended in the reaction buffer for JC-1 (Biovision, Inc. MitoCapture™ K250-100). HBSS-washed cells were analysed by flow cytometry (λexcit=488 nm and (λemit=530 nm for green fluorescence (depolarized) or 590 nm for red fluorescence (polarized). 10,000 gated events were measured with a BD FACScalibur. Results were expressed as mean±standard deviation (n=3).
After treatment with Cpd 1, protein was extracted from cells and measured as previously described (Kamsteeg et al., 2003). For separation of the cytoplasmic and mitochondrial fractions, cell pellets were processed using the ApoAlert Cell Fractionation kit (Promega) according to the manufacturer's instructions. […]

[2] = system: OSE (normal ovarian surface epithelial cells); assay: Cell viability, CellTiter 96 assay, normal cells; format: cell-based, Human; conditions: concentrations up to 10 μg/ml, 24 hr exposure
Procedure: (§2) FIG. 1. Comparative cytotoxicity of dehydroequol and Compound I as described herein (Cpd 1) against normal and ovarian cancer cells: CP70 (cell line), R179, R182, R585 (primary ovarian cancer explants) and OSE (normal ovarian surface epithelial cells). […] Both compounds were tested at concentrations up to 10 μg/ml and exposed to cells for 24 hr.
(§3) Human EOC cell lines A2780, CP70, and OSE were propagated in RPMI plus 10% fetal bovine serum (FBS) (Gemini Bio-Products, Woodland, Calif.) at 37° C. in a 5% CO2 atmosphere. Primary EOC cells (R179, R182, R585) were isolated from malignant ovarian ascites and cultured as previously described (Kamsteeg et al., 2003). Dehydroequol and Compound 1 (Cpd 1) were obtained from Novogen (Australia). All other reagents were purchased from Sigma Chemical (St. Louis, Mo.). The pan caspase inhibitor Z-VAD-FMK was obtained from R&D Systems (Minneapolis, Minn.).
(§4) Cell viability was evaluated using the CellTiter 96 Aqueous One Solution Cell Proliferation Assay (Promega, Madison, Wis.) according to the manufacturer's instructions. The values from the treated cells were compared with the values generated from the untreated cells and reported as percent viability. Each experiment was performed in triplicate.

[3] = system: CP70 (cell line), R179, R182, R585 (primary ovarian cancer explants); assay: Cell viability, CellTiter 96 Aqueous One Solution Cell Proliferation Assay, ovarian cancer cells; format: cell-based, Human; conditions: concentrations up to 10 μg/ml, 24 hr exposure
Procedure: as §2, §3, §4

caspase 9 = assay: Caspase-Glo 9 assay in R182 cells; format: cell-based, Human; conditions: R182 ovarian cancer explants; dose response and duration of exposure (5 μg/ml, 0-25 hr)
Procedure: FIG. 3. Comparative induction of caspase 9 in R182 ovarian cancer explants by Cpd 1 and dehydroequol using either dose response (A) or duration of exposure (B). Caspase 9 activity was assessed using the Caspase-Glo 9 assay.
(§5) For caspase activity assays, 10 μg of protein in 50 μL total volume was mixed with 50 μL of equilibrated Caspase-Glo 3/7, 8, or 9 reagents (Promega). After incubating at room temperature for 1 hour, luminescence was measured using TD 20/20 Luminometer (Turner Designs, Sunnyvale, Calif.). Blank values were subtracted and fold-increase in activity was calculated based on activity measured from untreated cells. Each sample was measured in triplicate.

endonuclease G = assay: Immunohistology of xenograft tumour sections, endonuclease G; format: in vivo, SCID mice; conditions: 100 mg/kg, compared to control
Procedure: FIG. 11. Cpd 1 markers of autophagy observed in in vitro studies are also present in vivo. […] T-S6K served as loading control.
as §1, with “Laboratories).” for “Laboratories). Tissue sections were then counterstained with haematoxylin (Sigma Chemical Co.) before dehydration with ethanol and Histosolve (Shandon Inc., Pittsburgh, Pa.).”

caspase 8 = assay: Caspase-Glo 8 assay in R182 cells; format: cell-based, Human; conditions: R182 ovarian cancer explants; dose response and duration of exposure (5 μg/ml, 0-25 hr)
Procedure: FIG. 4. Comparative induction of caspase 8 in R182 ovarian cancer explants by Cpd 1 and dehydroequol using either dose response (A) or duration of exposure (B). Caspase 8 activity was assessed using the Caspase-Glo 8 assay.
as §5

ovarian cancer cells = assay: Cell viability in presence of pan caspase inhibitor ZVAD-FMK; format: cell-based, Human; conditions: ZVAD-FMK 0.5 μg/ml
Procedure: FIG. 5. Comparative cell viability plots of dehydroequol (A) and Cpd 1 (B) treated cells in the presence and absence of the pan caspase inhibitor ZVAD-FMK (0.5 μg/ml).
as §4

## COc1ccc([C@H]2c3ccc(O)c(C)c3OC[C@H]2c2ccc(O)cc2)cc1 (stereo in doubt) [Cpd 1, 3-(4-hydroxyphenyl)-4-(4-methoxyphenyl)-8-methylchroman-7-ol]
[1]
  tumor volume: reductions
  tumor weight: reductions
Beclin 1
  mitochondrial content of beclin-1: transiently increased
[2]
  toxicity against normal OSE cells: some toxicity
[3]
  cell viability of ovarian cancer cells: decreased cell viability of all primary ovarian cancer cells
Caspase 9
  caspase 9 activity: did not induce caspase 9 activity
Endonuclease G
  expression of nuclear endonuclease G in tumour sections: increased
Caspase 8
  caspase 8 activity: did not induce caspase 8 activity
Ovarian cancer cells
  cell death in the presence of pan caspase inhibitor ZVAD-FMK: cell death proceeded

Reference: US20100173983A1, “METHOD FOR INDUCING AUTOPHAGY” (priority 2007, published 2010)
